Experimental data reported in paper PMC6858927 (Investigational new drugs, 2019).
Read-outs that look alike come from different tables or passages of the source.

[1] = Cohort B Dose 2: 400mg, Decitabine (n=2), grade 3+
[2] = Cohort B dose 1: 200mg, Decitabine (n=6), Total
[3] = Cohort B dose 1: 200mg, Decitabine (n=6), grade 1&2
[4] = Cohort B dose 1: 200mg, Decitabine (n=6), grade 3+

C1=C/COCc2cc(ccc2OCCN2CCCC2)Nc2nccc(n2)-c2cccc(c2)COC/1 [Pacritinib, 11-(2-pyrrolidin-1-yl-ethoxy)-14,19-dioxa-5,7,26-triaza-tetracyclo[19.3.1.1(2,6). 1(8,12)]heptacosa-1(25),2(26),3,5,8,10,12(27),16,21,23-decaene]
HYPERTENSION, patients (%) [1]: 0
HYPOALBUMINEMIA, patients (%) [1]: 0
HYPOKALEMIA, patients (%) [1]: 1 (50)
HYPOPHOSPHATEMIA, patients (%) [1]: 0
HYPOXIA, patients (%) [1]: 0
LUNG INFECTION, patients (%) [1]: 0
LYMPHOCYTE COUNT DECREASED, patients (%) [1]: 1 (50)
MUCOSITIS ORAL, patients (%) [1]: 0
NAUSEA, patients (%) [1]: 1 (50)
NEUTROPHIL COUNT DECREASED, patients (%) [1]: 1 (50)
PLATELET COUNT DECREASED, patients (%) [1]: 1 (50)
PLEURAL EFFUSION, patients (%) [1]: 0
PRURITUS, patients (%) [1]: 0
RASH MACULO-PAPULAR, patients (%) [1]: 0
RASH, patients (%) [1]: 0
RESPIRATORY FAILURE, patients (%) [1]: 0
VOMITING, patients (%) [1]: 0
WHITE BLOOD CELL DECREASED, patients (%) [1]: 1 (50)
ACTIVATED PARTIAL THROMBOPLASTIN TIME PROLONGED, patients (%) [2]: 1 (16.7)
ANEMIA, patients (%) [2]: 6 (100)
ANOREXIA, patients (%) [2]: 2 (33.3)
CONSTIPATION, patients (%) [2]: 1 (16.7)
DIARRHEA, patients (%) [2]: 1 (16.7)
DYSPNEA, patients (%) [2]: 0
EDEMA LIMBS, patients (%) [2]: 1 (16.7)
ELECTROCARDIOGRAM QT CORRECTED INTERVAL PROLONGED, patients (%) [2]: 2 (33.3)
FATIGUE, patients (%) [2]: 2 (33.3)
FEBRILE NEUTROPENIA, patients (%) [2]: 1 (16.7)
HYPERGLYCEMIA, patients (%) [2]: 1 (16.7)
HYPERTENSION, patients (%) [2]: 0
HYPOALBUMINEMIA, patients (%) [2]: 1 (16.7)
HYPOKALEMIA, patients (%) [2]: 2 (33.3)
HYPOPHOSPHATEMIA, patients (%) [2]: 1 (16.7)
HYPOXIA, patients (%) [2]: 0
LUNG INFECTION, patients (%) [2]: 1 (16.7)
LYMPHOCYTE COUNT DECREASED, patients (%) [2]: 3 (50)
MUCOSITIS ORAL, patients (%) [2]: 2 (33.3)
NAUSEA, patients (%) [2]: 3 (50)
NEUTROPHIL COUNT DECREASED, patients (%) [2]: 3 (50)
PLATELET COUNT DECREASED, patients (%) [2]: 5 (83.3)
PLEURAL EFFUSION, patients (%) [2]: 1 (16.7)
PRURITUS, patients (%) [2]: 0
RASH MACULO-PAPULAR, patients (%) [2]: 0
RASH, patients (%) [2]: 1 (16.7)
RESPIRATORY FAILURE, patients (%) [2]: 1 (16.7)
VOMITING, patients (%) [2]: 2 (33.3)
WHITE BLOOD CELL DECREASED, patients (%) [2]: 3 (50)
ACTIVATED PARTIAL THROMBOPLASTIN TIME PROLONGED, patients (%) [3]: 1 (16.7)
ANEMIA, patients (%) [3]: 1 (16.7)
ANOREXIA, patients (%) [3]: 2 (33.3)
CONSTIPATION, patients (%) [3]: 1 (16.7)
DIARRHEA, patients (%) [3]: 1 (16.7)
DYSPNEA, patients (%) [3]: 0
EDEMA LIMBS, patients (%) [3]: 1 (16.7)
ELECTROCARDIOGRAM QT CORRECTED INTERVAL PROLONGED, patients (%) [3]: 1 (16.7)
FATIGUE, patients (%) [3]: 2 (33.3)
FEBRILE NEUTROPENIA, patients (%) [3]: 0
HYPERGLYCEMIA, patients (%) [3]: 1 (16.7)
HYPERTENSION, patients (%) [3]: 0
HYPOALBUMINEMIA, patients (%) [3]: 1 (16.7)
HYPOKALEMIA, patients (%) [3]: 2 (33.3)
HYPOPHOSPHATEMIA, patients (%) [3]: 0
HYPOXIA, patients (%) [3]: 0
LUNG INFECTION, patients (%) [3]: 0
LYMPHOCYTE COUNT DECREASED, patients (%) [3]: 1 (16.7)
MUCOSITIS ORAL, patients (%) [3]: 1 (16.7)
NAUSEA, patients (%) [3]: 3 (50)
NEUTROPHIL COUNT DECREASED, patients (%) [3]: 0
PLATELET COUNT DECREASED, patients (%) [3]: 0
PLEURAL EFFUSION, patients (%) [3]: 1 (16.7)
PRURITUS, patients (%) [3]: 0
RASH MACULO-PAPULAR, patients (%) [3]: 0
RASH, patients (%) [3]: 1 (16.7)
RESPIRATORY FAILURE, patients (%) [3]: 0
VOMITING, patients (%) [3]: 2 (33.3)
WHITE BLOOD CELL DECREASED, patients (%) [3]: 0
ACTIVATED PARTIAL THROMBOPLASTIN TIME PROLONGED, patients (%) [4]: 0
ANEMIA, patients (%) [4]: 5 (83.3)
ANOREXIA, patients (%) [4]: 0
CONSTIPATION, patients (%) [4]: 0
DIARRHEA, patients (%) [4]: 0
DYSPNEA, patients (%) [4]: 0
EDEMA LIMBS, patients (%) [4]: 0
ELECTROCARDIOGRAM QT CORRECTED INTERVAL PROLONGED, patients (%) [4]: 1 (16.7)
FATIGUE, patients (%) [4]: 0
FEBRILE NEUTROPENIA, patients (%) [4]: 1 (16.7)
HYPERGLYCEMIA, patients (%) [4]: 0
HYPERTENSION, patients (%) [4]: 0
HYPOALBUMINEMIA, patients (%) [4]: 0
HYPOKALEMIA, patients (%) [4]: 0
HYPOPHOSPHATEMIA, patients (%) [4]: 1 (16.7)
HYPOXIA, patients (%) [4]: 0
LUNG INFECTION, patients (%) [4]: 1 (16.7)
LYMPHOCYTE COUNT DECREASED, patients (%) [4]: 2 (33.3)
MUCOSITIS ORAL, patients (%) [4]: 1 (16.7)
NAUSEA, patients (%) [4]: 0
NEUTROPHIL COUNT DECREASED, patients (%) [4]: 3 (50)
PLATELET COUNT DECREASED, patients (%) [4]: 5 (83.3)
PLEURAL EFFUSION, patients (%) [4]: 0
PRURITUS, patients (%) [4]: 0
RASH MACULO-PAPULAR, patients (%) [4]: 0
RASH, patients (%) [4]: 0
RESPIRATORY FAILURE, patients (%) [4]: 1 (16.7)
VOMITING, patients (%) [4]: 0
WHITE BLOOD CELL DECREASED, patients (%) [4]: 3 (50)
ACTIVATED PARTIAL THROMBOPLASTIN TIME PROLONGED, patients (%) (Overall (n=13), Total): 2 (15.4)
ANEMIA, patients (%) (Overall (n=13), Total): 11 (84.6)
ANOREXIA, patients (%) (Overall (n=13), Total): 2 (15.4)
CONSTIPATION, patients (%) (Overall (n=13), Total): 2 (15.4)
DIARRHEA, patients (%) (Overall (n=13), Total): 4 (30.8)
DYSPNEA, patients (%) (Overall (n=13), Total): 2 (15.4)
EDEMA LIMBS, patients (%) (Overall (n=13), Total): 2 (15.4)
ELECTROCARDIOGRAM QT CORRECTED INTERVAL PROLONGED, patients (%) (Overall (n=13), Total): 6 (46.2)
FATIGUE, patients (%) (Overall (n=13), Total): 5 (38.5)
HYPERTENSION, patients (%) (Overall (n=13), Total): 3 (23.1)
HYPOKALEMIA, patients (%) (Overall (n=13), Total): 4 (30.8)
LUNG INFECTION, patients (%) (Overall (n=13), Total): 2 (15.4)
LYMPHOCYTE COUNT DECREASED, patients (%) (Overall (n=13), Total): 7 (53.8)
MUCOSITIS ORAL, patients (%) (Overall (n=13), Total): 4 (30.8)
NAUSEA, patients (%) (Overall (n=13), Total): 7 (53.8)
RASH MACULO-PAPULAR, patients (%) (Overall (n=13), Total): 2 (15.4)
ACTIVATED PARTIAL THROMBOPLASTIN TIME PROLONGED, patients (%) (Overall (n=13), grade 1&2): 2 (15.4)
ANEMIA, patients (%) (Overall (n=13), grade 1&2): 2 (15.4)
ANOREXIA, patients (%) (Overall (n=13), grade 1&2): 2 (15.4)
CONSTIPATION, patients (%) (Overall (n=13), grade 1&2): 2 (15.4)
DIARRHEA, patients (%) (Overall (n=13), grade 1&2): 4 (30.8)
DYSPNEA, patients (%) (Overall (n=13), grade 1&2): 2 (15.4)
EDEMA LIMBS, patients (%) (Overall (n=13), grade 1&2): 2 (15.4)
ELECTROCARDIOGRAM QT CORRECTED INTERVAL PROLONGED, patients (%) (Overall (n=13), grade 1&2): 5 (38.5)
FATIGUE, patients (%) (Overall (n=13), grade 1&2): 5 (38.5)
LUNG INFECTION, patients (%) (Overall (n=13), grade 1&2): 0
LUNG INFECTION, patients (%) (Overall (n=13), grade 3+): 2 (15.4)
ACTIVATED PARTIAL THROMBOPLASTIN TIME PROLONGED, patients (%) (human, in vivo): 0
ANEMIA, patients (%) (human, in vivo): 9 (69.2)
ANOREXIA, patients (%) (human, in vivo): 0
CONSTIPATION, patients (%) (human, in vivo): 0
DIARRHEA, patients (%) (human, in vivo): 0
DYSPNEA, patients (%) (human, in vivo): 0
EDEMA LIMBS, patients (%) (human, in vivo): 0
ELECTROCARDIOGRAM QT CORRECTED INTERVAL PROLONGED, patients (%) (human, in vivo): 1 (7.7)
FATIGUE, patients (%) (human, in vivo): 0
RASH MACULO-PAPULAR, patients (%) (human, in vivo): 1 (7.7)
